Experimental data reported in patent US12653860B2, “Compositions and methods for editing beta-globin for treatment of hemaglobinopathies” (Vertex Pharmaceuticals Incorporated, priority 2019, dated 2026).

What was measured:
[1] = system: CFTR gene locus in HEK293 T cells; assay: TIDE analysis of DSB repair at CFTR gene locus; format: cell-based
Method: The effect of Nu7441 treatment on HDR was also evaluated at the CFTR gene locus in HEK293 T cells. To do so cells were electroporated with RNP comprising Cas9 and a gRNA targeting the CFTR gene locus (SEQ ID NO: 18; sgRNA target sequence identified by SEQ ID NO: 19). 2×10^5 cells were edited with 1 μM Cas9 and 1.5 μM gRNA. The cells were transfected with a ssODN donor (SEQ ID NO: 42). Cells were edited with 100 μM ssODN. The ssODN contains homology arms spanning both sides of the DSB induced by the Cas9-guide and is designed to include 3 additional base pairs (GCA) into the CFTR gene to aid detection of HDR. Cells were also treated with 5 μM Nu7441. Gene correction was assessed by TIDE analysis. TIDE analysis uses a pair of PCR reactions and standard capillary sequencing runs to identify mutations induced at the site of a DSB (see e.g., Brinkman (2014) Nucleic Acids Res 42:e168). The type of mutation induced at the DSB was indicative of the pathway used to repair the DSB. Formation of an indel comprising either an insertion or a deletion of bases was considered due to NHEJ repair; a deletion of 2-3 base pairs was considered due to MMEJ repair; while an insertion of 3 base pairs was considered due to HDR repair. Shown in FIGS. 4A-4B are mutations introduced at the DSB for cells treated with Nu7441 (FIG. 4B) compared to a DMSO negative control (FIG. 4A). […] This reduction in NHEJ repair in the presence of Nu7441 was evaluated with an additional ssODN donor (SEQ ID NO: 41).

[2] = system: CD34-expressing LT-HSPCs from a human donor with sickle cell disease; assay: Hemoglobin expression (HbS, HbA) by HPLC in edited differentiated patient LT-HSPCs; format: cell-based; conditions: FIG. 32B
Method: Hemoglobin expressed by edited cells that were differentiated to erythrocytes was assessed. Hemoglobin A (HbA) is composed of 2 alpha-globin and 2 beta-globin units and is the dominant hemoglobin in adult humans. In human carriers of the HBB E6V mutation, a high proportion of total hemoglobin is hemoglobin S (HbS), which is composed of 2 alpha-globin units and 2 beta-globin units with E6V.
Briefly, on day 18 post-editing, 1×10^6 cells were harvested, centrifuged, and washed with PBS. The cells were prepared for HPLC analysis. Hemoglobin variants were quantified in cell samples using reverse-phase HPLC chromatography and gradient elution. […] Thus, high levels of HDR achieved with i53 contribute to normalization of hemoglobin expression products.

[3] = system: HBB gene in CD34-expressing LT-HSPCs derived from human patients with sickle cell disease; assay: INDELs at R02 cut site in SCD patient-derived LT-HSPCs, NGS; format: cell-based; conditions: FIG. 30B
Method: Editing of cells was performed following two days of in vitro culture. Briefly, 5×10^5 cells were electroporated with RNP containing 20 g SpCas9 and 20 μg R02 sgRNA, AAV.323 at a dose of 10,000 MOI, and 1 g mRNA encoding i53. The cells were incubated with AAV.323 for 1 hour prior to electroporation. The cells were edited by electroporation with R02+AAV.323+i53 mRNA and compared to control cells edited with R02 only, R02+AAV.323, or cells exposed to electroporation without RNP or AAV editing components (mock EP).
The efficiency of gene correction by HDR repair at the HBB gene locus was evaluated by NGS assay as described in Example 3. Frequency of INDELs at the R02 cut site was evaluated by NGS analysis. […] Additionally, HDR repair and INDEL formation were compared at day 0 and day 14 post-editing.

[4] = system: HBB gene in PBMCs from a human donor with sickle cell disease; assay: HDR correction and INDELs in patient-derived PBMCs, NGS; format: cell-based
Method: (§1) It was further evaluated if editing of patient-derived PBMCs in the presence of i53 would yield high levels of correction of the HBB gene. […] The PBMCs were expanded in StemSpan SFEM II (1×)+StemSpan CC100 (1×)+Dexamethasone […]+hEPO 2IU/mL at 37° C. under normoxic conditions (20% O2 concentration). The cells were edited following five days of in vitro culture. […] On day 8, the cells were transferred to Phase 1 media, and differentiation to erythrocytes was performed through day 18 as described above. Efficiency of HDR at the HBB gene locus was evaluated on day 12 using the NGS assay described in Example 4. Also evaluated was the frequency of INDELs at the R02 cut-site as measured by NGS.

[5] = system: HBB locus; assay: Indel formation in mouse bone marrow 16 weeks post engraftment, TIDE; format: in vivo, mice
Method: (§2) NHEJ editing of the HBB locus was also evaluated in mouse bone marrow collected at 16 weeks post engraftment. Indel formation at the site of Cas9/gRNA cutting was evaluated by TIDE analysis in bone marrow samples and compared to indel formation of LT-HSPCs prior to administration.
as §2, with “administration. Regardless of the method used to edit the LT-HSPCs, indel formation was similar at 16 weeks post-engraftment to the level present prior to administration (FIG. 27).” for “administration.”

[6] = system: HBB locus in CD34-expressing LT-HSPCs; assay: Indel formation at HBB locus in vitro by TIDE analysis; format: cell-based, human; conditions: FIG. 11
Method: The cells were electroporated with 1 g mRNA encoding i53.
Editing efficiency at the HBB locus was evaluated by measuring indel formation by TIDE analysis. […] This group had 1.7-fold reduction in INDEL frequency relative to cells treated with RNP+AAV,

[7] = system: PBMCs from a human donor with sickle cell disease; assay: Hemoglobin expression by HPLC in edited patient-derived PBMCs; format: cell-based; conditions: compared to mock EP control cells, FIG. 34
Method: as §1
Hemoglobin expression was measured by HPLC analysis for edited PBMCs as described above.

[8] = Nu7441, either ssODN donor (SEQ ID NO: 41 or 42), FIG. 5

Row | Compound | HDR repair (+3 base pair insertion) ([1]; 5 μM Nu7441, ssODN SEQ ID NO: 42, FIGS. 4A-4B) | indel formation (+1, 0, or −1 base pair) ([1]; 5 μM Nu7441, ssODN SEQ ID NO: 42, vs DMSO negative control, FIGS. 4A-4B) | HDR repair [1, 8] | indel formation due to NHEJ repair [1, 8] | decrease in HbS levels relative to mock EP control cells [2] | frequency of INDELs at the R02 cut site, fold lower than RNP+AAV.323 alone [3] | frequency of INDELs ([4]; compared to control cells, FIG. 33B) | frequency of correction of the HBB gene by HDR repair ([4]; day 12, FIG. 33A) | level of indel formation in bone marrow ([5]; AAV.304, FIG. 27) | level of indel formation in bone marrow ([5]; AAV.307, FIG. 20) | level of indel formation [6] | expression of HbA [7] | expression of HbS [7]
1 | O=c1cc(N2CCOCC2)oc2c(-c3cccc4c3sc3ccccc34)cccc12 [Nu7441] | much higher levels of HDR repair | dramatically reduced | increase in HDR repair | decreased levels of indel formation |  |  |  |  |  |  |  |  | 
2 | i53: polypeptide inhibitor of 53BP1 (SEQ ID NO: 70), delivered as mRNA (ORF SEQ ID NO: 69) |  |  |  |  | 90% | 1.9 fold | reduced | approximately 60% | lowest | lowest | lowest level of indel formation | increased expression of HbA | significant reduction in expression of HbS
